Here are results for two substances from patent US6506730B1, “Nasal transmucosal delivery of peptide conjugated with biocompatible polymers” (priority 1999, dated 2003).

For orientation: bioavailability means the share of a dose that reaches the circulation, judged against a reference dose that is usually intravenous.

The conditions of series [1]: pH 5.5 to 6.0; cited from earlier work.
For series [2] the following is noted: oral administration; cited from earlier work.
Series [3] deals with calcium concentration in plasma. In words: Comparison of calcium reduction effect of sCT and PEG-sCT after nasal administration to rats. Type of series: in vivo, SD (Sprague Dawley) male rat. The note with it: rat; for plasma calcium as % of pre-dose value: n = 4, plasma calcium as ratio to primary value. As to the method: SD (Sprague Dawley) male rat (220-300 g, Charles River Japan, Atsugi, Japan) was put under anesthesia by administrating 45 mg/kg of peptobarbital into interperitoneal. Bronchus and esophagus were cannulated with PE-250 tube and thigh arteria with SP-45 tube. 20 ul of a placebo and experimental drugs were administered into the nasal cavity of rats with a Hamilton syringe. The placebo used physiological saline and the experimental drug used PEG5000-sCT, PEG12000-sCT, PEG2000-sCT and sCT prepared from the Example 2. Salmon calcitonin was administered at dose of 0.05 to 4.5 IU per rat, and rats were grouped into 4. 200 ul of blood was taken at before, 5, 10, 30, 60, 120, 240, 480 and […] after the placebo and the experimental drugs were administered, and immediately centrifuged to obtain 100 ul of plasma. The calcium concentration in plasma was measured using a calcium assay kit (Sigma, USA), and calcium remaining efficiency was calculated as the calcium concentration before administration was 100. The unit of the measured calcium concentration in plasma was mg/dl, and the remaining efficiency was calculated as the ratio (%) to the primary value.
After the remaining coefficient was calculated according to each time, area-under the curve (AUC) was calculated about the average value of remaining coefficient at each time per experimental group. The reduction ratio of calcium concentration was calculated by the mathematical formula 1, and the results were represented in the table 1 (FIG. 6).
? ΓD(%)=(AUCCa-plac−AUCCa-sCT)/AUCCa-plac ? ┐100
where, AUCCa-plac was AUC from placebo administration to 960 minutes, and AUCCa-sCT was AUC from calcitonin and experimental drugs administration to 960 minutes.

Series [4] shares this test system. The description is as above. Type of series: in vivo, SD (Sprague Dawley) male rat. As to conditions: Time 960 (minutes after nasal administration); rat, n = 4; plasma calcium as ratio to primary value.
Setting [5] is: nasal transmucosal administration.

Where no end group is shown, it is not given here.

As for “His-Asp-Tyr-Ala-Tyr-Asp-Lys-NH2 (HDYAYDK-NH2) [GHRP-6]”, in series [1], the “stability in acetate buffer” value is listed as “very stable”. Also, in series [2], the absorption half life is 15 min, the bioavailability was 0.3% and the elimination half life is 60 min.
For the substance salmon calcitonin [sCT], the “plasma calcium as % of pre-dose value” is 100% in series [3] (Time 0 (before administration = 100), nasal cavity); 98.9% in series [3] (Time 5 (minutes after nasal administration)); 93.7% in series [3] (Time 10 (minutes after nasal administration)); 95% in series [3] (Time 30 (minutes after nasal administration)); 98.7% in series [3] (Time 60 (minutes after nasal administration)); 97.8% in series [3] (Time 120 (minutes after nasal administration)). For the same substance, the “plasma calcium as % of pre-dose value” in series [3] (Time 240 (minutes after nasal administration)) came out at 100.3%; in series [3] (Time 480 (minutes after nasal administration)), 101.6%; in series [4], 101%. Besides, in series [3] (setting [5]), the “time after which calcium concentration restored at the original concentration” value turned out to be 2 h. In series [3] (setting [5]), the “time for which the calcium concentration was decreased / reduction effect represented after the nasal transmucosal administration” value amounted to 1 h.
